From paper PMC12264554, “Application of preclinical absorption, distribution, metabolism, elimination in vitro techniques for the characterization and compound library optimization of novel antibiotic gallium salophen” (Drug Metabolism and Disposition, 2025)
Where two headings read alike, the source gives them in different places.

What was measured:
[1] = calculated B/P, cited from earlier work
HasA = HasA (Pseudomonas aeruginosa, UniProt G3XD33); test: Kd determination by fluorescence quenching of apo-HasAp; settings: read-out: HasA Kd; apo-HasAp 1 μM, 20 mM sodium phosphate pH 7.4, 25 °C, one-site binding fit
HasA, sequence (G3XD33 entry or part of it): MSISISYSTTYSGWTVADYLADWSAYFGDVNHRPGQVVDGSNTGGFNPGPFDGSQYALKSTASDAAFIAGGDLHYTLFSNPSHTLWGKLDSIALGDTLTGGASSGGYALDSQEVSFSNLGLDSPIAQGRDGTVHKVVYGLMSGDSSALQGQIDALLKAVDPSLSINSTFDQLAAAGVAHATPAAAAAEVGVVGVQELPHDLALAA
Procedure: Wild-type, full-length HasAp was prepared from freshly transformed Escherichia coli BL21(DE3) competent cells as previously described in 4 L of M9 media. Cell pellets were resuspended and lysed with an LM-20 microfluidizer at 18,000 psi. Lysate was clarified by centrifugation and applied to a Q-Sepharose column. HasAp was eluted over a gradient from 20 to 600 mM NaCl in 20 mM Tris-HCl (pH 7.5), and desired fractions determined by SDS-PAGE were pooled. Apo-HasAp was further purified on a Butyl Sepharose Fast Flow column equilibrated with 50 mM sodium phosphate buffer with 0.7 M ammonium sulfate (pH 7.0). Holo-HasAp and other proteins eluted within 2–3 bed volumes of 50 mM sodium phosphate containing 0.5 M ammonium sulfate. Apo-HasAp was then eluted with a linear gradient of sodium phosphate buffer (50–20 mM) containing ammonium sulfate (0.5–0 M). Fractions were analyzed again by SDS-PAGE, and the apo-HasAp was pooled, concentrated (Amicon stirred cell with Ultracel 10 kDa filter), and exchanged into 20 mM sodium phosphate buffer.
Binding affinities were determined using a BioTek Synergy H1 microplate reader in a black 96-well plate. Compounds were solvated in H2O in serial dilutions (100–0.39 μM). One micromolar solution of apo-HasAp 20 mM sodium phosphate buffer (pH 7.4, 25 °C) was titrated into the ligand of interest. Emission spectra were recorded (300–500 nm) after excitation at 280 nm. The decrease in maximum emission was plotted against the ligand concentration (accounting for dilution) and fit to one-site binding using GraphPad Prism v10.

Caco-2 cells = test: Caco-2 permeability screening; format: in vitro ADME; settings: 20 μM, 30 and 60 min, average ± SEM
Procedure: (§1) Caco-2 cells were received from American Type Culture Collection and certified mycoplasma free. Cells were seeded on transwell plates (CoStar, growth area 0.33 cm^2/well, polycarbonate membrane, 0.33 μm pore size) between passage 20 and 27 and then analyzed between 21 and 25 days after wells were seeded to ensure enterocyte-like differentiation. Before assessing permeability, cells were washed once with Hank’s Balanced Salt Solution buffer, pH 7.4, and then incubated at 37 °C for 30 minutes. Transepithelial electrical resistance (TEER) was measured after equilibration before the experiment using an epithelial volt-ohmmeter (EVOM, World Precision Instruments), and cells were used if TEER > 250 Ω × cm^2. Cells were dosed to measure permeability from basolateral and apical sides at a concentration of 20 μM of test compound and 50 μM of Lucifer yellow. Lucifer yellow was used as a “zero permeability” marker to monitor the integrity of cell barrier. Samples were taken at 0 and 60 minutes from the donor side, and samples were taken at 30 and 60 minutes from the receiver side; media was replenished after the 30-minute sample was taken from both chambers. A calibration curve was prepared by serial dilution using the dosing solution in a 1:5 dilution. […] Samples were prepared for LC-MS/MS analysis by taking 100 μL of sample, adding 1 μM internal standard (GaSal-4 or GaSal-5), and crashing with 400 μL of methanol. Samples were centrifuged at 3000 rpm at 4 °C for 30 minutes, 200 μL of supernatant was transferred to a new plate, and 100 μL of water was added to each sample. Samples were vortexed and analyzed by LC-MS/MS as described earlier. […] To preliminarily evaluate organic cation transporter 1 (OCT1) or P-glycoprotein (P-gp)-dependent transport, transport studies were conducted with and without a 1 μM “inhibitor cocktail” alongside GaSal. […] The Papp for basolateral to apical, Papp apical to basolateral, and efflux ratio were reported for each compound. In order to calculate Papp, the concentration in the sampled time point was determined from the calibration curve and then converted to μg based on the volume of the chamber (0.2 mL for apical, 1.0 mL for basolateral). […] The calculation of Papp was determined using eq. […] Data are presented as the average ± SEM for each compound analyzed as n = 3 on 2 different days with 2 different cell line passages, for n = 6 total. GaSal is n = 3 on 3 different cell line passages since this was used as a test compound for the inhibition cocktail experiments.

[2] = Experimental LogP by reverse-phase HPLC method; format: physicochemical; settings: extrapolated log kw
Excerpt: LogP was experimentally determined using previously published reverse-phase high-performance liquid chromatography method, and this workflow was adapted using instrumentation described in the previous LC-MS/MS analysis section ([Coutinho et al, 2023]). Briefly, analogs were eluted using isocratic flow with an increasing percentage of organic solvent from 55% to 90% in increments of 5%. The change in the log of the retention factor, log k, was plotted against the fraction of organic solvent. This allowed for extrapolation to the y-intercept, which is when the fraction of organic in the system is zero, or log kw. The same workflow was applied to known compounds with a published logP value to establish a relationship between logP and log kw. This ratio was used to calculate the experimental logP from the log kw of the test compounds. The in silico prediction of logP values was obtained using an online calculator by Molinspiration Cheminformatics (molinspiration.com).

[3] = Caco-2 permeability screening; format: in vitro ADME; settings: for Papp A→B / Papp B→A / efflux ratio at 20 µM: Caco-2, 20 μM; for Papp A→B / Papp B→A: 30 and 60 min, average ± SEM; for Papp A→B: read-out: Papp apical to basolateral; for Papp B→A: read-out: Papp basolateral to apical; for Papp: Caco-2, ranked by Papp against control drugs, read-out: Permeability ranking; for efflux ratio at 20 µM: human, read-out: Efflux ratio B to A/A to B
Procedure: as §1

[4] = RBC/PL partitioning equilibrium in whole blood; settings: 2 hours, LC-MS/MS (ICP-MS for Ga^3+); for K2EDTA KRBC/PL: pooled K2EDTA whole blood; for Heparin KRBC/PL: pooled sodium heparin whole blood
Procedure: The mixtures were digested at 80 °C for 4 hours and further diluted to a concentration of 6% nitric acid. Gallium (Ga^71) in whole blood, PL, and RBC samples were quantified using an Agilent 7700x ICP-MS instrument (Agilent Technologies). Metal levels were detected using an Octopole Reaction System in He mode. Other ICP-MS parameters include an radio frequency power of 1500 W, on octupole radio frequency of 190 V, an octapole bias of –18 V, a helium gas flow of 4.3 mL/min, and an argon flow of 0.99 L/min. Samples were loaded through a 7700X peristaltic (with a speed of 0.1 rps) and a MicroMist nebulizer. A standard calibration curve was used to derive metal concentrations. The calibration standards from 0–250 ppb were prepared in 6% nitric acid using atomic absorption standards (Sigma). Data analysis and extraction were performed using Agilent’s MassHunter software version 5.1, specifically version D.01.01.
All LC-MS/MS grade solvents were purchased from ThermoFisher. Ammonium bicarbonate was purchased from Sigma Aldrich. Analysis was performed on a Waters I-Class ultra-performance liquid chromatography system connected with a Waters Xevo TQ-XS mass spectrometer. Ten millimolar ammonium bicarbonate, pH 9.4 was used for mobile phase A, and 100% methanol was used for mobile phase B. The column flow rate was set at 0.400 mL/min. Chromatographic separation was performed with a BEH C18 (2.1 × 50 mm, 1.7 μm) column (Waters). […] The total run time was 4 minutes. The column temperature was set to 60 °C, and the autosampler temperature was set to 15 °C. Washing parameters were 800 μL of weak needle wash (acetonitrile [ACN]:Water/50:50) and 1000 μL of strong needle wash (methanol:ACN:2-propanol:formic acid/30:30:40:0.5) after every injection. Transitions used to monitor all drugs in the study are shown in Supplemental Table 1.
Whole blood (either potassium EDTA [K2EDTA] or sodium heparin) was preincubated at 37 °C for 30 minutes before spiking with the analyte. GaSal-5 was made at a stock concentration of 100 μg/mL in water and then spiked at a high concentration (1 μg/mL) and low concentration (100 ng/mL) to determine whether equilibrium was concentration dependent. Samples were then aliquoted and stored in a water bath at 37 °C for 1, 2, 3, 4, and 8 hours or harvested immediately. PL was harvested from samples by centrifuging at 3000 rpm at 4 °C for 10 minutes. PL was transferred to a new tube and considered the PL fraction, whereas the rest of the matrix was considered the RBC fraction. Samples were then either analyzed by LC-MS/MS or ICP-MS. […] For selectivity lot analysis, whole blood from 3 male and 3 female donors were incubated for 2 hours and then analyzed with LC-MS/MS and ICP-MS at a single concentration of 1 μg/mL. Data are presented as average ± SEM, n = 3 per sample, per concentration. Significance was determined by using a paired t test for ICP-MS and LC-MS/MS data (the same sample, different method) or a 2-tailed Student’s t test for different anticoagulants.

[As] [Arsenic]
KRBC/PL (B/P ratio) ([1]; ref (Cao et al., 2023)): 1.46

[Cd] [Cadmium]
KRBC/PL (B/P ratio) ([1]; ref (Cao et al., 2023)): 4.28

[Cr] [Chromium]
KRBC/PL (B/P ratio) ([1]; ref (Bonde & Christensen, 1991)): 1-3

C[N+](C)(C)CCOc1ccc(/C=N/c2ccccc2/N=C/c2ccc(OCC[N+](C)(C)C)cc2O)c(O)c1.[Ga+3] [GaSal-1]
Kd (HasA): 2.5 ± 1.2 µM

CN(C)CCOc1ccc(C=Nc2ccccc2N=Cc2ccc(OCCN(C)C)cc2O)c(O)c1.[Ga+3] [GaSal-2]
Papp apical to basolateral (Caco-2 cells): Undetected | Papp basolateral to apical (Caco-2 cells): Undetected | logP [2]: 3.7 | Kd (HasA): 1.2 ± 0.3 µM

C/C(=N\c1ccccc1/N=C/c1ccc(OCC[N+](C)(C)C)cc1O)c1ccccc1O.[Ga+3] [GaSal-6]
Kd (HasA): 4 ± 2.8 µM

CC(=Nc1ccccc1N=Cc1ccc(OCCN(C)C)cc1O)c1ccccc1O.[Ga+3] [GaSal-7]
Papp apical to basolateral (Caco-2 cells): Undetected | Papp basolateral to apical (Caco-2 cells): Undetected | logP [2]: 3.27 | Kd (HasA): 5 ± 0.9 µM

CC(=Nc1ccccc1N=Cc1ccc(OCCN2CCOCC2)cc1O)c1ccccc1O.[Ga+3] [GaSal-8]
Papp A→B [3]: < 0.01 ×10⁻⁶ cm/s | Papp B→A [3]: 5.75 ± 0.37 ×10⁻⁶ cm/s | Papp [3]: < 1.12 ×10⁻⁶ cm/s | efflux ratio at 20 µM [3]: > 5.75 | logP [2]: 4.11 | K2EDTA KRBC/PL ([4]; 0.1 μg/mL): 0.12 ± 0.09 | Heparin KRBC/PL ([4]; 0.1 μg/mL): 33.8 ± 5.7 | K2EDTA KRBC/PL ([4]; 1 μg/mL): 0.10 ± 0.05 | Heparin KRBC/PL ([4]; 1 μg/mL): 37.4 ± 2.6 | Kd (HasA): 5.2 ± 0.4 µM

CC(=Nc1ccccc1N=Cc1ccc(OCCC(=O)O)cc1O)c1ccccc1O.[Ga+3] [GaSal-9]
Papp A→B [3]: < 0.01 ×10⁻⁶ cm/s | Papp B→A [3]: 22.5 ± 5.63 ×10⁻⁶ cm/s | Papp [3]: < 1.12 ×10⁻⁶ cm/s | efflux ratio at 20 µM [3]: > 22.5 | logP [2]: 3.03 | K2EDTA KRBC/PL ([4]; 0.1 μg/mL): 820 ± 59 | K2EDTA KRBC/PL ([4]; 1 μg/mL): 13745 ± 3800 | Kd (HasA): 0.33 ± 0.04 µM

COCCOCCOc1ccc(/C=N/c2ccccc2N=C(C)c2ccccc2O)c(O)c1.[Ga+3] [GaSal-10]
Kd (HasA): 3.4 ± 0.3 µM
